One data set can be described thus: physchem. The following applies: buffer. How it is done:
Table S1. Sulfonyl fluoride warhead stability for VHL-SF1 and VHL-SF2 was determined in
(1 picture or pasted object on this page, not shown here)

The next data set concerns the target T1, VHL (VCB) (Homo sapiens, UniProt P40337).
T1 construct: human VHL (UniPort entry P40337, residues 1 -213); 6xHis followed by TEV site (N, cleaved yes); made in house; host or cells: E. coli One Shot BL21(DE3)
Description: Intact-protein LC-MS of VCB labelling. Format: binding. The following applies: 100 μM compound, 24 h, room temperature. The method, then:
Initially, we subjected VHL-SF2-Biotin to the streptavidin shift assay and observed a greater extent of VHL modification (44%) than for VHL-SF1-Biotin under the same conditions (Figure S2). […] Intact LC–MS analysis confirmed single labeling of VHL by VHL-SF2, with 65% conversion at 24 h (Figure S5). Although we attempted several site ID identification experiments by digesting the labeled recombinant VHL, the Ser110-containing peptide was not detected in the samples treated with VHL-SF2. This observation is consistent with a change in peptide properties that is incompatible with mass spectrometry detection compared to untreated samples (Table S2). […]
Figure S4. Dose-response of VHL-SF1 following a 2 h pre-incubation in the presence of VCB and FAM-conjugated HIF1α-derived peptide, assessed by fluorescence polarization. […]
HEK293 cells (10 × 10^6 cells at 2 × 10^5 cells/ mL) were transfected with 2.6 µg of VHL-NanoLuc plasmid (PROMEGA) plus 24 µg of transfection carrier plasmid (PROMEGA) and incubated for 20 h at 37 °C, in a 5% CO2 incubator. […] Immediately after addition of tracer and compounds, cells were treated with digitonin after which NanoBRET Nano-Glo Substrate and inhibitor were added and BRET signal was measured in a Clariostar plate reader (BMG Labtech) at 450 nm and 610 nm within 5 min after addition of digitonin. […]

The results in this text go back to publication PMC10982999, “Structure-Guided Design and Optimization of Covalent VHL-Targeted Sulfonyl Fluoride PROTACs” (Journal of Medicinal Chemistry, 2024).

As a reminder, the half-life is the time in which the quantity being followed falls by half. A higher half-life goes with slow loss.

On to `Cc1cc([C@H](C(=O)N2C[C@H](S(=O)(=O)F)C[C@H]2C(=O)N[C@@H](CC(=O)OC(C)(C)C)c2ccc(-c3scnc3C)cc2)C(C)C)on1` [VHL-SF2, tert-Butyl (S)-3-((2S,4R)-4-(Fluorosulfonyl)-1-((R)-3-methyl-2-(3-methylisoxazol-5-yl)butanoyl)pyrr-olidine-2-carboxamido)-3-(4-(4-methylthiazol-5-yl)phenyl)propanoate], for which the half-life in “physchem” (pH 4) was 38 h; in the data set “physchem” (pH 5) it was 14 h; in “physchem” (pH 6) it was 15 h; in “physchem” (pH 7.5), 0.4 h. The “conversion, single (mono) labelling of VHL” value on VHL (VCB) came out at 65%.
